Measurements taken from publication PMC3812159, “A Comparative Analysis of the Ubiquitination Kinetics of Multiple Degrons to Identify an Ideal Targeting Sequence for a Proteasome Reporter” (PLoS ONE, 2013).
Read-outs that look alike come from different tables or passages of the source. Residues, ends and D or L forms follow the SMILES beside them. *: point of attachment. 5FAM = O=C1OC2(c3ccc(O)cc3Oc3cc(O)ccc32)c2ccc(C(=O)*)cc21

How the values were obtained:
[1] = system: endogenous proteases and peptidases found in the S100 lysates; assay: Peptidase-dependent degradation rate constants from the multi-monoubiquitination model; details: values multiplied by 10^3; for k5, rate constant for peptidase-dependent degradation of unmodified parent substrate: HeLa S100 cytosolic lysates 2 mg/mL, proteasome inhibited by 100 µM MG-132, pH 7.6, 37°C, 12-14 µM peptide, model-fitted (MCMC), degraded substrate not measured; for k6, rate constant for peptidase-dependent degradation of mono-ubiquitinated substrate / k7, rate constant for peptidase-dependent degradation of di-ubiquitinated substrate / k8, rate constant for peptidase-dependent degradation of tri-ubiquitinated substrate / k9, rate constant for peptidase-dependent degradation of tetra-ubiquitinated substrate: as k5, HeLa S100 lysates, MG-132, 37°C, model-fitted
[2] = system: TAZ-based substrate ubiquitination (a target of the SCF^βTrCP E3 ligase); assay: Ubiquitin pull down of TAZ-based substrate with inhibitors of the E1-E3 cascade; type: biochemical; details: 2 hours at 37°C with inhibitor, gel, concentrations only in Figure 5b
Experimental: Figure 5 Variations in E3 ligase activity result in fluxuations in degron-based substrate ubiquitination. (A) To evaluate the impact of different levels of E3 ligase activity, the four top performing degron-based substrates (β-Catenin, Bonger, iNOS, and p53) were incubated in lysates from four different cell lines (HeLa, U937, THP-1, and HL60) in the ubiquitin pull down assay. Further, the assay was supplemented with wild type ubiquitin to examine polyubiquitin chain formation. All reaction mixtures were incubated for 2 hours at 37°C prior to continuation with the pull down assay. (B) The effects of a NEDD8 inhibitor (MLN-4924) and an E1 inhibitor (PYR-41) were examined on the TAZ-based substrate (a target of the SCF^βTrCP E3 ligase). The ubiquitin pull down was performed as previously described with the reactions incubated for 2 hours with the listed inhibitor concentrations at 37°C prior to continuation with the pull down assay. […]
To perform a more precise analysis of the impact of variations in E3 ligase activity on degron-based substrate ubiquitination and to identify any issues with peptide specificity, the second route of experimentation was the application of known inhibitors of the E1–E3 enzymatic cascade. […] To examine the effects of partially inhibiting SCF^βTrCP, TAZ-based substrate ubiquitination was assessed in the presence and absence of this inhibitor (Figure 5b).

[3] = system: endogenous proteases and peptidases found in the S100 lysates
[4] = system: HeLa S100 cytosolic lysates as the source of E1, E2, and E3 enzymes; assay: Ubiquitin pull down assay with methylated ubiquitin, multi-monoubiquitination kinetic model; type: biochemical; details: for substrate ubiquitination, fluorescent intensity compared to unmodified substrate: ubiquitin pull down, methylated ubiquitin, time points up to 240 min, n = 3; for k1/k5, mono-ubiquitination vs. degradation of unmodified substrate: ratio of fitted rate constants, >1 favours ubiquitination, <1 degradation
From the text: A second model based on substrate multi-monoubiquitination was developed and evaluated. This model assumed that the generation of di-, tri-, and tetra-ubiquitinated species was the result of multiple methylated ubiquitins being conjugated to the multiple available lysines found on the degron-based substrate (Figure 3a). As opposed to the polyubiquitination model, the multi-monoubiquitination model accurately fit the data for all eight degron-based substrates (Figure 3b–d, Figure S4 in File S1, Table 2). Using this model, kinetic rate constants for all ubiquitination (k1 for mono-, k2 for di-, k3 for tri-, and k4 for tetra-) and peptidase-dependent degradation steps (Table 2) were calculated. The multi-monoubiquitination model nicely corresponded to the observed results in Figure 2. […] The model also captured the preference for di-ubiquitination of the Cyclin D1 degron (k2 is two-fold greater than k1) and the equal preference of mono- and di-ubiquitination states found in the HIF-1α degron (k1 of 2.6 and k2 of 3.0). Further, the similar behavior and observed kinetics for IFNAR and TAZ degrons were mostly likely due to the fact that these degrons are recognized by the same E3 ligase, SCF^βTrCP (Table 1). To test the robustness of the multi-monoubiquitination model, a ninth substrate based on the degron from the protein β-Catenin was assessed. This substrate was selected because it is ubiquitinated by the same E3 ligase as TAZ and IFNAR1, SCF^βTrCP. The model accurately fit the data for the multi-monoubiquitination of the β-Catenin degron-based substrate with similar rate constants compared to the TAZ and IFNAR1-based substrates (Table 2). Finally, it was important to assess the validity of the model by addressing the relative goodness of fit between the experimental data and the model predictions as determined from the multi-monoubiquitination model. For this particular analysis it was decided to calculate the sample Pearson correlation coefficient (Eq. S10 in File S1), a widely used metric to measure the dependence between two variables. A correlation coefficient was calculated between the model predictions and experimental data for mono-, di-, tri-, and tetra-ubiquitinated substrate for all nine degron-based substrates (Table S1 in File S1). As per convention, a positive value approaching 1 corresponds to a very good fit, which is observed for all nine substrates indicating a good fit between model and data.

Compound | effect of inhibitor on ubiquitination of the TAZ-based substrate [2] | k6, rate constant for peptidase-dependent degradation of mono-ubiquitinated substrate [3] | k7, rate constant for peptidase-dependent degradation of di-ubiquitinated substrate [3] | k8, rate constant for peptidase-dependent degradation of tri-ubiquitinated substrate [3] | k9, rate constant for peptidase-dependent degradation of tetra-ubiquitinated substrate [3] | substrate ubiquitination, fluorescent intensity compared to unmodified substrate [4] | k1/k5, mono-ubiquitination vs. degradation of unmodified substrate [4] | k5, rate constant for peptidase-dependent degradation of unmodified parent substrate [1] | k6, rate constant for peptidase-dependent degradation of mono-ubiquitinated substrate [1] | k7, rate constant for peptidase-dependent degradation of di-ubiquitinated substrate [1] | k8, rate constant for peptidase-dependent degradation of tri-ubiquitinated substrate [1] | k9, rate constant for peptidase-dependent degradation of tetra-ubiquitinated substrate [1]
CC(=O)N[C@@H](CCCCN)C(=O)N[C@H](C(=O)N[C@@H](CCCNC(=N)N)C(=O)NCC(=O)N[C@H](C(=O)N[C@@H](CCC(=O)O)C(=O)N[C@@H](CCC(=O)O)C(=O)N[C@H](C(=O)N[C@@H](C)C(=O)N[C@@H](CCC(=O)O)C(=O)NCC(=O)N[C@H](C(=O)N[C@H](C(=O)N[C@@H](CC(C)C)C(=O)N[C@@H](CC(C)C)C(=O)N[C@@H](CCCNC(=N)N)C(=O)N[C@@H](CCCNC(=N)N)C(=O)N[C@@H](CCCNC(=N)N)C(=O)NCC(=O)N[C@@H](CC(N)=O)C(=O)N[C@@H](CCCCNC(=O)c1ccc2c(c1)C(=O)OC21c2ccc(O)cc2Oc2cc(O)ccc21)C(=O)N[C@@H](CCCCN)C(=O)N[C@@H](CCCCN)C(=O)N[C@@H](CCCCN)C(N)=O)C(C)C)C(C)C)C(C)C)C(C)C)[C@@H](C)O [Bonger] (Ac-KTRGVEEVAEGVVLLRRRGNK(5FAM)KKK-NH2) | – | – | – | – | – | – | – | 4.0 (1/min)*10^3 | 0.01 (1/min)*10^3 | 1.0 (1/min)*10^3 | 0.01 (1/min)*10^3 | 0.01 (1/min)*10^3
CC[C@H](C)[C@H](NC(=O)[C@H](Cc1ccc(O)cc1)NC(=O)[C@@H]1CCCN1C(=O)[C@H](C)NC(=O)[C@H](CC(C)C)NC(=O)[C@H](C)NC(=O)[C@H](CCC(=O)O)NC(=O)[C@H](CC(C)C)NC(=O)[C@H](CC(=O)O)NC(=O)[C@H](CC(C)C)NC(=O)[C@H](CC(=O)O)NC(=O)[C@H](C)NC(=O)[C@H](CO)NC(=O)[C@H](C)NC(C)=O)C(=O)N1CCC[C@H]1C(=O)N[C@@H](C)C(=O)N[C@@H](CC(=O)O)C(=O)N[C@@H](CC(=O)O)C(=O)N[C@@H](CC(=O)O)C(=O)N[C@@H](Cc1ccccc1)C(=O)N[C@@H](CCC(N)=O)C(=O)N[C@@H](CC(C)C)C(=O)N[C@@H](CCCNC(=N)N)C(=O)N[C@@H](CCCCNC(=O)c1ccc2c(c1)C(=O)OC21c2ccc(O)cc2Oc2cc(O)ccc21)C(=O)N[C@@H](CCCCN)C(=O)N[C@@H](CCCCN)C(=O)N[C@@H](CCCCN)C(N)=O [HIF-1α] (Ac-ASADLDLEALAPYIPADDDFQLRK(5FAM)KKK-NH2) | – | – | – | – | – | – | – | 7.0 (1/min)*10^3 | 0.1 (1/min)*10^3 | 0.1 (1/min)*10^3 | 0.4 (1/min)*10^3 | 0.8 (1/min)*10^3
CC(=O)N[C@@H](CCCCN)C(=O)N1CCC[C@H]1C(=O)N[C@@H](CC(C)C)C(=O)N[C@@H](CO)C(=O)N[C@@H](CO)C(=O)N[C@@H](CO)C(=O)N[C@H](C(=O)N1CCC[C@H]1C(=O)N[C@@H](CO)C(=O)N[C@@H](CCC(N)=O)C(=O)N[C@@H](CCCCN)C(=O)N[C@H](C(=O)N[C@@H](Cc1ccc(O)cc1)C(=O)N[C@@H](CCC(N)=O)C(=O)NCC(=O)N[C@@H](CO)C(=O)N[C@@H](Cc1ccc(O)cc1)C(=O)NCC(=O)N[C@@H](Cc1ccccc1)C(=O)N[C@@H](CCCNC(=N)N)C(=O)N[C@@H](CC(C)C)C(=O)NCC(=O)N[C@@H](CCCCNC(=O)c1ccc2c(c1)C(=O)OC21c2ccc(O)cc2Oc2cc(O)ccc21)C(=O)N[C@@H](CCCCN)C(=O)N[C@@H](CCCCN)C(=O)N[C@@H](CCCCN)C(N)=O)[C@@H](C)O)C(C)C [p53] (Ac-KPLSSSVPSQKTYQGSYGFRLGK(5FAM)KKK-NH2) | – | 0.01 (1/min)*10^3 | 0.01 (1/min)*10^3 | 0.01 (1/min)*10^3 | 0.33 (1/min)*10^3 | – | – | – | – | – | – | –
K-(PEG)-KEEKDINNNVKKTK(FAM)KKK [iNOS] | – | 1.0 (1/min)*10^3 | 0.01 (1/min)*10^3 | 0.01 (1/min)*10^3 | 0.3 (1/min)*10^3 | higher ubiquitination | 1.62 | – | – | – | – | –
KAAEEEEVSLASTPTDVRDVDIK(FAM)KKK [Cyclin D1] | – | 0.01 (1/min)*10^3 | 0.01 (1/min)*10^3 | 0.01 (1/min)*10^3 | 1.8 (1/min)*10^3 | lowest degree of ubiquitination | 0.47 | – | – | – | – | –
KKYSSQTSQDSGNYSNK(FAM)KKK [IFNAR1] | – | 0.01 (1/min)*10^3 | 0.01 (1/min)*10^3 | 0.01 (1/min)*10^3 | 0.1 (1/min)*10^3 | – | 0.96 | – | – | – | – | –
KPFLNGGPYHSREQSTDSGLGLGSYK(FAM)KKK [TAZ] | – | 1.5 (1/min)*10^3 | 0.1 (1/min)*10^3 | 0.5 (1/min)*10^3 | 0.1 (1/min)*10^3 | – | 2.65 | – | – | – | – | –

More lines, main results first:

effect of inhibitor on ubiquitination of the TAZ-based substrate [2] | k6, rate constant for peptidase-dependent degradation of mono-ubiquitinated substrate [3] | k7, rate constant for peptidase-dependent degradation of di-ubiquitinated substrate [3] | k8, rate constant for peptidase-dependent degradation of tri-ubiquitinated substrate [3] | k9, rate constant for peptidase-dependent degradation of tetra-ubiquitinated substrate [3] | substrate ubiquitination, fluorescent intensity compared to unmodified substrate [4] | k1/k5, mono-ubiquitination vs. degradation of unmodified substrate [4] | Compound | k5, rate constant for peptidase-dependent degradation of unmodified parent substrate [1] | k6, rate constant for peptidase-dependent degradation of mono-ubiquitinated substrate [1] | k7, rate constant for peptidase-dependent degradation of di-ubiquitinated substrate [1] | k8, rate constant for peptidase-dependent degradation of tri-ubiquitinated substrate [1] | k9, rate constant for peptidase-dependent degradation of tetra-ubiquitinated substrate [1]
slightly impaired | – | – | – | – | – | – | NS(=O)(=O)OC[C@@H]1C[C@@H](n2ccc3c(N[C@H]4CCc5ccccc54)ncnc32)C[C@@H]1O [MLN-4924] | – | – | – | – | –
reduced ubiquitination | – | – | – | – | – | – | CCOC(=O)c1ccc(N2NC(=O)/C(=C/c3ccc([N+](=O)[O-])o3)C2=O)cc1 [PYR-41] | – | – | – | – | –
– | 0.01 (1/min)*10^3 | 0.01 (1/min)*10^3 | 0.01 (1/min)*10^3 | 0.33 (1/min)*10^3 | lowest degree of ubiquitination | – | K-(PEG)-DVQKADVSSTGQGIDSK(FAM)KKK [SRC3] | – | – | – | – | –
